Experimental data reported in patent publication US11407740B2 (priority 2018, dated 2022).
Converted amounts (≈) assume the structure as drawn.

system: E. coli; test: Bacterial susceptibility testing, MIC by broth microdilution (CLSI); details: Escherichia coli, read-out: E. coli MIC, broth microdilution, 35° C., 18-24 h
Experimental: Minimal inhibitory concentrations (MIC) were determined by the broth microdilution method in accordance with the Clinical and Laboratory Standards Institute (CLSI) guidelines. In brief, organism suspensions were adjusted to a 0.5 McFarland standard to yield a final inoculum between 3×10^3 and 7×10^5 colony-forming units (CFU)/mL. Drug dilutions and inocula were made in sterile, cation adjusted Mueller-Hinton Broth (Beckton Dickinson). An inoculum volume of 100 μL was added to wells containing 100 μL of broth with 2-fold serial dilutions of drug.

SMILES | MIC [µg/mL]
O=c1[nH]cnc(CC(CNCCF)c2ccc(C#Cc3cnn(C4CCOCC4)c3)cc2)c1O (stereo not drawn) [Compound 205] | 1 to 8 (≈ 2.15 to 17.2 µM)
O=c1[nH]cnc(CC(CNCCF)c2ccc(C#Cc3cnn(CC4CCOCC4)c3)cc2)c1O (stereo not drawn) [Compound 206] | 1 to 8 (≈ 2.09 to 16.7 µM)
O=c1[nH]cnc(CC(CNCCF)c2ccc(C#Cc3ccn4cncc4c3)cc2)c1O (stereo not drawn) [Compound 207] | 1 to 8 (≈ 2.32 to 18.5 µM)
O=c1[nH]cnc(CC(CNCCF)c2ccc(C#Cc3cnn(C4COC4)c3)cc2)c1O (stereo not drawn) [Compound 208] | 1 to 8 (≈ 2.29 to 18.3 µM)
O=c1[nH]cnc(CC2CCc3cc(C#Cc4ccc(CN5CCOCC5)cc4)ccc32)c1O (stereo not drawn) [Compound 209] | 1 to 8 (≈ 2.26 to 18.1 µM)
O=C1NC(Cc2nc[nH]c(=O)c2O)c2ccc(C#Cc3ccc(CN4CCOCC4)cc3)cc21 (stereo not drawn) [Compound 210] | 1 to 8 (≈ 2.19 to 17.5 µM)
O=c1[nH]cnc(CC(CO)n2ccc(C#Cc3ccc(CN4CCOCC4)cc3)cc2=O)c1O (stereo not drawn) [Compound 211] | 8 to 32 (≈ 17.3 to 69.2 µM)
O=C(O)C(Cc1nc[nH]c(=O)c1O)N1Cc2cc(-c3ccc(CCN4CCOCC4)cc3)cn2C1=O (stereo not drawn) [Compound 212] | > 32
NC(Cc1nc[nH]c(=O)c1O)c1ccc(-c2ccc(CCN3CCOCC3)cc2)cc1 (stereo not drawn) [Compound 214] | 8 to 32 (≈ 19 to 76.1 µM)
COC1CN(Cc2ccc(C#Cc3ccc(C(CNC(C)(C)CF)Cc4nc[nH]c(=O)c4O)cc3)cc2)C1 (stereo not drawn) [Compound 221] | < 1
COC1CN(Cc2ccc(C#Cc3ccc(C(CNC4CC4)Cc4nc[nH]c(=O)c4O)cc3)cc2)C1 (stereo not drawn) [Compound 223] | < 1
COC1CN(Cc2ccc(C#Cc3ccc(C(CNC4CC4)Cc4nc[nH]c(=O)c4O)c(F)c3)cc2)C1 (stereo not drawn) [Compound 225] | < 1
O=c1[nH]cnc(CC(CN2CC(O)C2)c2ccc(C#Cc3ccc(CN4CCOCC4)cc3)cc2F)c1O (stereo not drawn) [Compound 231] | < 1
O=C(CO)NC1CCN(Cc2ccc(C#Cc3ccc(C(CO)Cc4nc[nH]c(=O)c4O)cc3)cc2)CC1 (stereo not drawn) [Compound 240] | < 1
COC1CN(Cc2ccc(C#Cc3ccc(C(CNC(CO)CF)Cc4nc[nH]c(=O)c4O)cc3)cc2)C1 (stereo not drawn) [Compound 244] | 1 to 8 (≈ 1.92 to 15.4 µM)
COC1CN(Cc2ccc(C#Cc3ccc(C(CNCC(F)CO)Cc4nc[nH]c(=O)c4O)cc3)cc2)C1 (stereo not drawn) [Compound 249] | 1 to 8 (≈ 1.92 to 15.4 µM)
NCC1CN(Cc2ccc(C#Cc3ccc(C(CO)Cc4nc[nH]c(=O)c4O)cc3)cc2)CCO1 (stereo not drawn) [Compound 258] | 1 to 8 (≈ 2.11 to 16.9 µM)
O=c1[nH]cnc(CC(CO)c2ccc(C#Cc3ccc(CNC4CCNCC4)cc3)cc2)c1O (stereo not drawn) [Compound 259] | 1 to 8 (≈ 2.18 to 17.4 µM)
NCC(=O)N1CCC(C#Cc2ccc(C(CO)Cc3nc[nH]c(=O)c3O)cc2)CC1 (stereo not drawn) [Compound 263] | > 32
O=C(CO)N1CCC(C#Cc2ccc(C(CO)Cc3nc[nH]c(=O)c3O)cc2)CC1 (stereo not drawn) [Compound 264] | > 32
CS(=O)(=O)NC(Cc1nc[nH]c(=O)c1O)c1ccc(C#Cc2ccc(CN3CCOCC3)cc2)cc1 (stereo not drawn) [Compound 289] | < 1
CS(=O)(=O)N[C@H](Cc1nc[nH]c(=O)c1O)c1ccc(C#Cc2ccc(CN3CCNC[C@H]3CO)cc2)cc1 [Compound 291] | < 1
CC(C)(CF)NCC(Cc1nc[nH]c(=O)c1O)c1ccc(C#Cc2ccc(CN3CCOCC3)cc2)cc1 (stereo not drawn) [Compound 301] | < 1
Cc1nccn1CC(Cc1nc[nH]c(=O)c1O)c1ccc(C#Cc2ccc(CN3CCOCC3)cc2)cc1 (stereo not drawn) [Compound 305] | < 1

same assay, conditions: broth microdilution, 35° C., 18-24 h

SMILES | E. coli MIC
O=c1[nH]cnc(CC(CNC2CC(F)(F)C2)c2ccc(C#Cc3ccc(CN4CCOCC4)cc3)cc2)c1O (stereo not drawn) [Compound 114] | B (B: >1 μg/mL to ≤8.0 μg/mL)
O=c1[nH]cnc(CC(CNC2CC2)c2ccc(C#Cc3ccc(CN4CCOCC4)cc3)cc2)c1O (stereo not drawn) [Compound 119] | A (A: ≤1 μg/mL)
O=c1[nH]cnc(CC(CNC2CC2)c2ccc(C#Cc3ccc(CN4CCOCC4)cc3)cc2)c1O (stereo not drawn) [Compound 120] | B (B: >1 μg/mL to ≤8.0 μg/mL)
COC1CN(Cc2ccc(C#Cc3ccc(C(Cc4nc[nH]c(=O)c4O)CN4C(=O)OC[C@@H]4C)cc3)cc2)C1 (stereo partly drawn) [Compound 122] | A (A: ≤1 μg/mL)
COC1CN(Cc2ccc(C#Cc3ccc(C(Cc4nc[nH]c(=O)c4O)CN4CC(F)C4)cc3)cc2)C1 (stereo not drawn) [Compound 159] | A (A: ≤1 μg/mL)
COC1CN(Cc2ccc(C#Cc3ccc(C(Cc4nc[nH]c(=O)c4O)CN4CC(F)C4)cc3)cc2)C1 (stereo not drawn) [Compound 160] | A (A: ≤1 μg/mL)
COC1CN(Cc2ccc(C#Cc3ccc(C(Cc4nc[nH]c(=O)c4O)CN4CC(OC)C4)cc3)cc2)C1 (stereo not drawn) [Compound 176] | A (A: ≤1 μg/mL)
COC1CN(Cc2ccc(C#Cc3ccc(C(Cc4nc[nH]c(=O)c4O)CN4CC(F)C4)cc3)cc2)C1 (stereo not drawn) [Compound 180] | C (C: >8.0 μg/mL to ≤32 μg/mL)
COC1CN(Cc2ccc(C#Cc3ccc(C(Cc4nc[nH]c(=O)c4O)CN4CC(F)C4)cc3)cc2)C1 (stereo not drawn) [Compound 181] | B (B: >1 μg/mL to ≤8.0 μg/mL)
COC1CN(Cc2ccc(C#Cc3ccc(C(CNC4CC4)Cc4nc[nH]c(=O)c4O)cc3)cc2)C1 (stereo not drawn) [Compound 224] | B (B: >1 μg/mL to ≤8.0 μg/mL)
O=C(CO)NC1CCN(Cc2ccc(C#Cc3ccc(C(CO)Cc4nc[nH]c(=O)c4O)cc3)cc2)CC1 (stereo not drawn) [Compound 241] | B (B: >1 μg/mL to ≤8.0 μg/mL)
O=C(CO)NC1CCN(Cc2ccc(C#Cc3ccc(C(CO)Cc4nc[nH]c(=O)c4O)cc3)cc2)CC1 (stereo not drawn) [Compound 242] | A (A: ≤1 μg/mL)
